According to patent US10149472B2, “Chitin oligomers for use in promoting non-leguminous plant growth and development” (Wisconsin Alumni Research Foundation, priority 2015, dated 2018):

Key:
[1] = tested on: corn (maize); experiment: Seed treatment of corn in pots; assay type: in vivo; conditions: seed coating 125 μl of 10^−6 M, 2 weeks after planting
Method: Five grams of corn (maize) seeds were added to three separate 50 ml tubes. A water solution containing 0.5% ethanol was added to the control tube, 125 μl of 10^−6 M CO4 solution was added to the CO4 tube, and 125 μl of 10^−6 M CO8 solution was added to the CO8 tube. Each tube was then shaken to coat the seeds. Seeds were potted immediately following treatment into moistened SUNGRO® potting mix in 4×6×6 cm pots. Plants were watered by pouring water into the tray containing the pots up to about ¾ inch high. After sowing the seeds, the pots were randomly distributed (16 pots per treatment) throughout the tray and placed underneath continuous light at room temperature for 1 week. Liquid Fahräeus medium (plant fertilizer solution; see above) was applied every 2 days or when necessary. After a week, the pots were placed underneath 10 h light and 14 h dark cycle at room temperature for 1 week. After 1 week underneath 10 h light and 14 h dark cycle (2 weeks after planting), the plants were carefully removed from the pots, and as much soil as possible was shaken off. The remaining soil was removed by submerging the root system into a beaker of water. The number of primary roots (PR), lateral roots (LR), root system length (RSL) and dry weight (DW) was then measured for all plants.

[2] = tested on: rice atrichoblasts on lateral roots; experiment: Calcium spiking (YC3.6 imaging) in rice atrichoblasts on lateral roots; assay type: cell-based, Oryza sativa cv Nipponbare; conditions: for calcium oscillations: FIG. 1; for calcium oscillations, CO4 compared with CO8: 10^−8M and 10^−5 M, FIG. 2
Method: Mycorrhizal induced calcium responses were measured as described previously (14). Transgenic Oryza sativa Nipponbare lines carrying Yellow Cameleon 3.6 (YC3.6) FRET-based calcium sensor was used to detect calcium spiking. YC3.6 was imaged on a Nikon Eclipse Ti inverted microscope (Nikon, Japan) equipped with an OptoLED Illuminator (model OptoLED, Cairn Research Ltd, UK). YC3.6 was excited at a wavelength of 455 nm using a royal blue LED and was captured with a charge-coupled device (CCD) camera (model RETIGA-SRV, Qimaging, Canada). Emitted fluorescence was separated by an image splitter with a dichroic mirror (model Optosplit II, Cairn Research Ltd, UK) and then passed through a fluorescence filter set. Images were collected every 5 seconds with 1-second exposure and analyzed using MetaFluor (Molecular Devices, Sunnyvale, Calif., USA).
For Bayesian Spectrum Analysis we computed the most probable periods in the time series following published procedures (15). Ten traces per treatment were analyzed. The joint distributions over the period were used to characterize each group. The plots show binned data to summarize the key periods. These ten traces per treatment were also analyzed for interspike intervals. The point of maximum height for each spike was computed after detrending of the time series using a moving average algorithm. The distances between these maxima gave rise to an interspike distribution. We used the non-parametric Mann-Whitney U-test, also known as the Mann-Whitney-Wilcoxon test (16, 17) to test for significant differences between the distributions.
Three traces per treatment, with approximately 80 spikes altogether, were analyzed for calcium spike characteristics. […] The traces were detrended using a moving average algorithm (18). We then characterized the spikes by the time required for each upward and downward phase. This was computed by the number of data points it took from the maximum spike height to the baseline fluctuation of the trace. The plots show the mean value of the upward and downward phases for each treatment, and the associated standard deviations are indicated by the error bars.
Calcium responses were assessed using a stably transformed line of Oryza sativa cv Nipponbare carrying YC3.6. […] To test an array of different LCO structures, we analyzed calcium spiking in response to Nod factor isolations from the broad host range rhizobial species, Rhizobium sp. NGR234, as well as Rhizobium tropici, in addition to the Myc-LCOs.

[3] = tested on: rice knock-out mutants of pollux and dmi3; experiment: Root architecture modification in rice Ospollux and Osdmi3 mutants; assay type: in vivo, Oryza sativa cv Nipponbare; conditions: 10^−8M; Ospollux and Osdmi3 mutants vs wild-type; FIG. 4
Method: Oryza sativa cv Nipponbare wild-type and Tos17 insertion lines in POLLUX (line NC6453) and DMI3 were used for root architecture experiments (12, 13). Seeds were prepared by sterilizing with 2% bleach for 20 minutes, followed by 3, 5-minute rinses with sterile water. The sterile seeds were then imbibed overnight. Seeds were then plated on damp germination paper in Petri plates under sterile conditions and germinated in the dark at 25 degrees for 7 days. Germinated rice plants were then plated on Fahraeus medium on germination paper and grown at 22 degrees under constant light. After 5 days the plants were treated with 10^−8M LCOs and COs for 24 hours by submersion and re-plated onto Fåhræus Medium 1.5% agar plates (0.132 g/L CaCl2, 0.12 g/L MgSO4.7H2O, 0.1 g/L KH2PO4, 0.075 g/L Na2HPO4.2H2O, 5 mg/L Fe-citrate, and 0.07 mg/L each of MnCl2.4H2O, CuSO4.5H2O, ZnCl2, H3BO3, and Na2MoO4.2H2O, adjusted to pH 6.5 before autoclaving). As all signals were suspended in 50% ethanol, the appropriate concentration of ethanol in sterile DI water served as a control. Root system architecture was assessed after 2 weeks.
Total lateral roots of rice were enumerated manually two weeks after application of 10^−8M COs and LCOs. As COs and LCOs were suspended in 50% ethanol, the control is sterile deionized water containing the appropriate amount of ethanol. […] Root system length was measured starting from the root-shoot junction to the tip of the longest root. The number of crown roots was assessed manually as those roots emerging from the root-shoot junction. […] Data were assessed for normality using the Shapiro-Wilk test (α=0.01), and statistical significance was determined using a paired t-test assuming unequal variances, or a Mann-Whitney-Wilcoxon Test if normality was not observed (α=0.05). […]
To assess the role of the common symbiotic pathway in regulating root architecture modifications in response to purified LCOs and COs, we quantified root responses to mycorrhizal signals in rice knock-out mutants of pollux (upstream of calcium spiking) and dmi3 (downstream of calcium spiking).

In the case of `CC(=O)N[C@H]1[C@H](O[C@H]2[C@H](O)[C@@H](NC(C)=O)C(O)O[C@@H]2CO)O[C@H](CO)[C@@H](O[C@@H]2O[C@H](CO)[C@@H](O[C@@H]3O[C@H](CO)[C@@H](O)[C@H](O)[C@H]3NC(C)=O)[C@H](O)[C@H]2NC(C)=O)[C@@H]1O` (stereo partly drawn) [CO4, tetra-N-acetylchitotetraose], the “Average Dry Weight” value [1] is reported as 0.1225, the “Average Root System Length” value [1] is reported as 23.76 and the “Average Seminal Roots” value [1] is reported as 4.45. For the same compound, the calcium oscillations ([2]; 10^−5M, rice large lateral roots, epidermal cells (atrichoblasts)) was “strong calcium oscillations”, the “calcium oscillations, CO4 compared with CO8” value [2] was “respond equally well” and the calcium oscillations ([2]; 10^−8M, rice epidermal cells, robustness and number of responsive cells reduced) was “still showed calcium oscillations”. The “dependence of lateral root growth promotion on POLLUX / DMI3” value [3] was “dependent on both POLLUX and DMI3”.
`CC(=O)N[C@H]1[C@H](O[C@H]2[C@H](O)[C@@H](NC(C)=O)[C@H](O[C@H]3[C@H](O)[C@@H](NC(C)=O)[C@H](O[C@H]4[C@H](O)[C@@H](NC(C)=O)C(O)O[C@@H]4CO)O[C@@H]3CO)O[C@@H]2CO)O[C@H](CO)[C@@H](O[C@@H]2O[C@H](CO)[C@@H](O[C@@H]3O[C@H](CO)[C@@H](O[C@@H]4O[C@H](CO)[C@@H](O[C@@H]5O[C@H](CO)[C@@H](O)[C@H](O)[C@H]5NC(C)=O)[C@H](O)[C@H]4NC(C)=O)[C@H](O)[C@H]3NC(C)=O)[C@H](O)[C@H]2NC(C)=O)[C@@H]1O` (stereo partly drawn) [CO8, octa-N-acetyl-chitooctaose] was tested, and the “Average Dry Weight” value [1] was 0.1229, the “Average Root System Length” value [1] was 21.42 and the “Average Seminal Roots” value [1] was 4.75. The “calcium oscillations, CO4 compared with CO8” value [2] was “respond equally well” and the “dependence of lateral root growth promotion on POLLUX / DMI3” value [3] was “dependent on POLLUX”.
